In brackets after ≈: the same amount, converted by molar mass. Blank lines part the entries; values can stand above or below the compound they belong to. Activity calls are given as the source filed them. The rule behind the calls is not given here. Residues, ends and D or L forms follow the SMILES beside them. *: point of attachment. X1 = CN(C)c1ccc2c(-c3ccc(C(=O)*)cc3C(=O)[O-])c3ccc(N(C)C)cc3[o+]c2c1; Octanoyl = CCCCCCCC(=O)*
Assays:
[1] = test system: Escherichia coli; experiment: Antibacterial activity against Escherichia coli ATCC 25922 assessed as inhibition of bacterial growth incubated for 18 hrs by two fold serial dilution assay; assay type: functional
[2] = test system: Acinetobacter baumannii; experiment: Antibacterial activity against Acinetobacter baumannii ATCC 17978 assessed as inhibition of bacterial growth incubated for 18 hrs by two fold serial dilution assay; assay type: functional
[3] = test system: Klebsiella pneumoniae; experiment: Antibacterial activity against Klebsiella pneumoniae ATCC 700603 assessed as inhibition of bacterial growth incubated for 18 hrs by two fold serial dilution assay; assay type: functional
[4] = Hemolytic activity in human blood assessed as hemolysis incubated for 6 hrs by microplate reader analysis; assay type: toxicity, tissue-based
[5] = Hydrophobicity of the compound assessed as retention time by reversed-phase HPLC analysis; assay type: physicochemical
[6] = test system: Escherichia coli; experiment: Antibacterial activity against Escherichia coli ATCC 25922 assessed as inhibition of bacterial growth incubated for 18 hrs in presence of rifampicin with calcium and Mg2+ broth media by two fold serial dilution assay; assay type: functional, organism-based
[7] = test system: Acinetobacter baumannii; experiment: Antibacterial activity against Acinetobacter baumannii ATCC 17978 assessed as inhibition of bacterial growth incubated for 18 hrs in presence of rifampicin with calcium and Mg2+ broth media by two fold serial dilution assay; assay type: functional, organism-based
[8] = test system: Klebsiella pneumoniae; experiment: Antibacterial activity against Klebsiella pneumoniae ATCC 700603 assessed as inhibition of bacterial growth incubated for 18 hrs in presence of rifampicin with calcium and Mg2+ broth media by two fold serial dilution assay; assay type: functional, organism-based
[9] = test system: Cell membrane; experiment: Induction of outer membrane permeabilization in Escherichia coli ATCC 25922 assessed as increase in fluorescence by measuring fold change by NPN-dye based fluorescence analysis; assay type: subcellular
[10] = test system: Escherichia coli; experiment: Antibacterial activity against Escherichia coli ATCC 25922 assessed as fold increase in bacterial growth inhibition incubated for 1 hr by propidium iodide staining based fluorescence assay; assay type: functional
[11] = test system: Escherichia coli; experiment: (§1) Potentiation of rifampicin induced antibacterial activity against NDM1-producing carbapenem-resistant Escherichia coli infected CD1 mouse sepsis model assessed as reduction in bacterial colony forming unit in lung tissue at 25 mg/kg,SC administrated after 2 hrs of post-infection in presence of rifampicin; assay type: functional, organism-based
[12] = test system: Escherichia coli; experiment: as §1, with “after 6” for “after 2”; assay type: functional, organism-based
[13] = test system: Escherichia coli; experiment: Potentiation of rifampicin induced antibacterial activity against NDM1-producing carbapenem-resistant Escherichia coli infected CD1 mouse sepsis model assessed as reduction in bacterial colony forming unit in blood at 25 mg/kg,SC administrated after 2 hrs of post-infection in presence of rifampicin; assay type: functional
[14] = test system: Escherichia coli; experiment: Potentiation of rifampicin induced antibacterial activity against NDM1-producing carbapenem-resistant Escherichia coli infected CD1 mouse sepsis model assessed as reduction in bacterial colony forming unit in blood at 25 mg/kg,SC administrated after 6 hrs of post-infection in presence of rifampicin; assay type: functional
[15] = Cytotoxicity against human HK-2 cells assessed as cell growth inhibition incubated for 24 hrs by WST-1 reagent microplate reader assay; assay type: toxicity, cell-based
[16] = Nephrotoxicity in Sprague-Dawley rat assessed as increase in blood urea nitrogen level at 30 mg/kg,iv administration for 1 hr and measured after 25 hrs; assay type: toxicity, organism-based; conditions: in vivo, 26 h
[17] = Nephrotoxicity in Sprague-Dawley rat assessed as […] in creatinine level at 30 mg/kg,iv administration for 1 hr and measured after 25 hrs; assay type: toxicity, organism-based; conditions: in vivo, 26 h
[18] = Toxicity in male Sprague-Dawley rat assessed as reduction in body weight at 20 mg/kg,iv administration and observed on day 2; assay type: organism-based; conditions: in vivo, 48 h, time 2 day
[19] = Toxicity in male Sprague-Dawley rat assessed as reduction in body weight at 20 mg/kg,iv administration observed on day 14; assay type: organism-based; conditions: in vivo, 336 h, time 14 day
[20] = Toxicity in female Sprague-Dawley rat assessed as reduction in body weight at 20 to 60 mg/kg,iv administration observed on day 2; assay type: organism-based; conditions: in vivo, 48 h, dose 20-60 mg/kg, time 2 day
[21] = Toxicity in male Sprague-Dawley rat assessed as reduction in body weight at 40 mg/kg,iv administration observed on day 14 relative to control; assay type: organism-based; set-up: scale not given: the % may be the effect or the level left; conditions: in vivo, 336 h, time 14 day
[22] = Toxicity in male Sprague-Dawley rat assessed as reduction in body weight at 60 mg/kg,iv administration observed on day 14 relative to control; assay type: organism-based; set-up: scale not given: the % may be the effect or the level left; conditions: in vivo, 336 h, time 14 day
[23] = Toxicity in female Sprague-Dawley rat assessed as reduction in body weight at 20 to 60 mg/kg,iv administration observed on day 4; assay type: organism-based; conditions: in vivo, 96 h, dose 20-60 mg/kg, time 4 day
[24] = Toxicity in male Sprague-Dawley rat assessed as no observed adverse effect level at iv administration and observed on day 14; assay type: organism-based; conditions: in vivo, time 14 day
[25] = Toxicity in female Sprague-Dawley rat assessed as no observed adverse effect level at iv administration and observed on day 14; assay type: organism-based; conditions: in vivo, time 14 day
[26] = AUClast in CD1 mouse at 1 mg/kg,iv administration measured upto 1 hr by LC-MS/MS analysis; assay type: ADME, organism-based; set-up: time < 1 hrs, dose 1 mg/kg, route iv; conditions: in vivo
[27] = AUClast in CD1 mouse at 3 mg/kg,iv administration measured upto 1 hr by LC-MS/MS analysis; assay type: ADME, organism-based; set-up: dose 3 mg/kg, time < 1 hrs, route iv; conditions: in vivo
[28] = AUClast in CD1 mouse at 10 mg/kg,iv administration measured upto 1 hr by LC-MS/MS analysis; assay type: ADME, organism-based; set-up: time < 1 hrs, dose 10 mg/kg, route iv; conditions: in vivo
[29] = Clearance in CD1 mouse at 1 mg/kg,iv administration measured upto 1 hr by LC-MS/MS analysis; assay type: ADME, organism-based; conditions: in vivo
[30] = Clearance in CD1 mouse at 3 mg/kg,iv administration measured upto 1 hr by LC-MS/MS analysis; assay type: ADME, organism-based; conditions: in vivo
[31] = Clearance in CD1 mouse at 10 mg/kg,iv administration measured upto 1 hr by LC-MS/MS analysis; assay type: ADME, organism-based; conditions: in vivo
[32] = AUClast in Sprague-Dawley rat at 3 mg/kg,iv administration measured upto 24 hr by LC-MS/MS analysis; assay type: ADME, organism-based; set-up: time < 24 hrs, dose 3 mg/kg, route iv; conditions: in vivo
[33] = Clearance in Sprague-Dawley rat at 3 mg/kg,iv administration measured upto 24 hr by LC-MS/MS analysis; assay type: ADME, organism-based; conditions: in vivo
[34] = Volume of distribution in Sprague-Dawley rat at 3 mg/kg,iv administration measured upto 24 hr by LC-MS/MS analysis; assay type: ADME, organism-based; conditions: in vivo
[35] = test system: Cell membrane; experiment: Induction of outer membrane disruption in Acinetobacter baumannii ATCC 17978 at 5 uM incubated for 30 mins by confocal laser scanning microscopy; assay type: subcellular
[36] = Drug localization in Acinetobacter baumannii ATCC 17978 assessed as increase in fluorescence at cytosol at 5 uM incubated for 30 mins by confocal laser scanning microscopy; assay type: ADME, subcellular; conditions: 0.5 h
[37] = Drug localization in Escherichia coli ATCC 25922 assessed as increase in fluorescence at membrane at […] incubated for 30 mins by confocal laser scanning microscopy; assay type: ADME, cell membranes; conditions: 0.5 h, dose 0.63 µM
[38] = Drug localization in Escherichia coli ATCC 25922 assessed as increase in fluorescence at membrane at […] by fluorescence-activated cell sorting analysis; assay type: ADME, cell membranes; conditions: dose 0.13 µM

SMILES: CCCCCCCC(=O)N[C@@H](CCCCN)C(=O)N[C@@H](CCCCN)C(=O)N[C@@H](C)C(=O)N[C@@H](CC(C)C)C(=O)N[C@@H](CCCCN)C(=O)N[C@@H](CC(C)C)C(=O)N[C@@H](C)C(=O)N[C@@H](CCCCN)C(=O)N[C@@H](CCCCN)C(=O)N1CCC[C@H]1C(=O)N[C@@H](CC(C)C)C(=O)N[C@@H](CCCCN)C(=O)N[C@@H](CC(C)C)C(=O)N[C@@H](CC(C)C)C(=O)N[C@@H](CCCCN)C(N)=O (HELM PEPTIDE1{[CCCCCCCC(=O)[*:2]].K.K.A.L.K.L.A.K.K.P.L.K.L.L.K.[am]}$$$$V2.0)
MIC [1]: > 80 µM
MIC [2]: 20 µM (≈ 36.9 µg/mL)
MIC [3]: > 80 µM
MHC10 [4]: > 160 µM
Retention_time [5]: 18.1 min
Activity [6]: inactive
Activity [7]: inactive
Activity [8]: inactive
fold change (FC) [9]: 10
fold change (FC) [10]: 10
Activity [11]: Active
Activity [12]: Active
Activity [13]: >4 log10CFU
Activity [14]: >4 log10CFU
IC50 at 24 h [15]: 86.9 µM
Activity [16]: 19 mg/dL
Activity [17]: 0.28 mg/dL
Activity [18]: Toxic
Activity [19]: Non-Toxic
Activity [20]: Toxic
Activity [21]: 9%
Activity [22]: 9%
Activity [23]: Non-Toxic
NOAEL at 336 h [24]: 20 mg/kg
NOAEL at 336 h [25]: 60 mg/kg
AUClast [26]: 88.9 ng·h/mL
AUClast [27]: 263 ng·h/mL
AUClast [28]: 941 ng·h/mL
clearance [29]: 218 mL/min/kg
clearance [30]: 182 mL/min/kg
clearance [31]: 190 mL/min/kg
AUClast [32]: 246 ng·h/mL
clearance [33]: 192 mL/min/kg
Vd [34]: 3.07 L/kg

Activity [35]: Active
Drug uptake [36]: Active
Drug uptake [37]: Active
Drug uptake [38]: Active
SMILES: CCCCCCCC(=O)N[C@@H](CCCCNC(=O)c1ccc(-c2c3ccc(N(C)C)cc3[o+]c3cc(N(C)C)ccc23)c(C(=O)[O-])c1)C(=O)N[C@@H](CCCCN)C(=O)N[C@@H](C)C(=O)N[C@@H](CC(C)C)C(=O)N[C@@H](CCCCN)C(=O)N[C@@H](CC(C)C)C(=O)N[C@@H](C)C(=O)N[C@@H](CCCCN)C(=O)N[C@@H](CCCCN)C(=O)N1CCC[C@H]1C(=O)N[C@@H](CC(C)C)C(=O)N[C@@H](CCCCN)C(=O)N[C@@H](CC(C)C)C(=O)N[C@@H](CC(C)C)C(=O)N[C@@H](CCCCN)C(N)=O (Octanoyl-K(X1)KALKLAKKPLKLLK-NH2)
